Starred links: 1 amine or outer side, 2 acyl side, 3 side chain; linkers in the order of their positions; H or OH if unused. Positions of bridges follow the written chain, without caps; N, C: chain ends. Non-standard residues stand in square brackets, D forms with d. Residues, ends and D or L forms follow the SMILES beside them. Groups on a side chain read outwards from the residue. ξ: configuration not given here. *: point of attachment. X11 = NCCCC[C@@H](N[*:2])C(=O)C[C@@H](CS[*:1])C(N)=O; C18 diacid = O=C(O)CCCCCCCCCCCCCCCCC(=O)*; Dip = N[C@H](C(=O)O)C(c1ccccc1)c1ccccc1; X10 = CCC(=O)CC[C@H](N[*:1])C(=O)[*:2]; X9 = O=C([C@@H](N[*:1])SC[*:3])[*:2]; Aic = NC1(C(=O)O)Cc2ccccc2C1; hLeu = CC(C)CC[C@H](N)C(=O)O; ξIle = CC[C@H](C)C(N)C(=O)O; Isovaleryl = CC(C)CC(=O)*; Dap = NC[C@H](N)C(=O)O; AEEA = NCCOCCOCC(=O)O

The first assay deals with T1, human ferroportin (Homo sapiens, UniProt Q9NP59).
T1 construct: expressed in transfected cells
T1 sequence (Q9NP59 1-571): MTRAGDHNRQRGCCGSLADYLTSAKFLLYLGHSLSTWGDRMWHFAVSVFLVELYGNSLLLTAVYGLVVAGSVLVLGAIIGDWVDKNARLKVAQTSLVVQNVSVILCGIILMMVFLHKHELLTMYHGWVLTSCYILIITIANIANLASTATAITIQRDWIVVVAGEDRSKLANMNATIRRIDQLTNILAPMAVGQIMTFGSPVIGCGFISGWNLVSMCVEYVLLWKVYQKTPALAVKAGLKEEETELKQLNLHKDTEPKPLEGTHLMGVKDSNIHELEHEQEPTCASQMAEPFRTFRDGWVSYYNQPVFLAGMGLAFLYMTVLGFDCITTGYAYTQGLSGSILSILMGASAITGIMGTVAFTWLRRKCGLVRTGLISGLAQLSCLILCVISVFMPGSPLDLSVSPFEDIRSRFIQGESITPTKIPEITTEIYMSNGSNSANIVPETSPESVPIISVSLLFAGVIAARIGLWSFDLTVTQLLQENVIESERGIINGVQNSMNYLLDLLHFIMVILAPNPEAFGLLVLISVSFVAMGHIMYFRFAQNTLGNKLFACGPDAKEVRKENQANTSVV
Put plainly: FPN activity assay: internalization/degradation of ferroportin-GFP in stably transfected HEK293 cells (decrease in GFP fluorescence). In kind it is cell-based. To be noted: Table 2A; HEK293 cells expressing human ferroportin-GFP, at least 18 hours incubation. As for the experimental part:
Following internalization, the ferroportin protein is degraded.
A retro inverse peptide is a peptide with a reversed sequence in all D amino acids. An example is that Hy-Glu-Thr-His-NH2 becomes Hy-DHis-DThr-DGlu-NH2. The EC50 of these reference compounds for ferroportin internalization/degradation was determined according to the FPN activity assay described above. These peptides served as control standards.
These values were determined as described herein.
In turn, “Isovaleric Acid-E-T-H-[Dpa]-P-[Cys]-I-[Lys(Ac)]-[bhPhe]-[Lys(2Peg20K)]-R-[Cys]-NH2 [Compound 46]” came in with an EC50 of over 3000 nM.
Same read-out and setting: the figure for “Isovaleric Acid-E-T-H-[Dpa]-P-[Cys]-I-[Lys(Ahx_PEG20K)]-[bhPhe]-R-[Cys]-NH2 [Compound 51]” is 103 nM.
On the same count and under the same terms, the figure for “Isovaleric Acid-E-T-H-[Dpa]-P-[Cys]-I-[Lys(2Peg20K)]-[bhPhe]-[Lys(2Peg11′_Palm)]-R-[Cys]-NH2 [Compound 50]” is 3.31 nM.

The assay is the same for the next values; noted with them: Table 2B; HEK293 cells expressing human ferroportin-GFP, at least 18 hours incubation.
The molecule “Isovaleric Acid-E-T-H-[Dpa]-P—C—I-[Lys(1PEG2_1PEG2_Ahx_Palm)]-[bhPhe]-[(D)Lys(PEG20K-C—NH2 [Compound 314]” gave an EC50 of 357 nM.
Molecule “Isovaleric Acid-E-T-H-[Dpa]-P—C—I-[Lys(1PEG2_1PEG2_Ahx_C18_Diacid)]-[bhPhe]-[(D)Lys(PEG40KB-C—NH2 [Compound 297]” came in with a half-maximal effective concentration (EC50) of 1360 nM.
“Isovaleric Acid-E-T-H-[Dpa]-P—C—I-[Lys(Ahx_Palm)]-[bhPhe]-[(D)Lys(PEG20K)]-C—NH2 [Compound 312]” displayed an EC50 of 32.6 nM.
As for “Isovaleric Acid-E-T-H-[Dpa]-P—C—I-[Lys(PEG40KB)]-[bhPhe]-[Lys(PEG12_Palm)]-R—C—NH2 [Compound 296]”, the response was half-maximal at 1080 nM (EC50).
Still for that read-out and setting: to “Isovaleric Acid-E-T-H-[Dpa]-P—C—I-[Lys(PEG12_Palm)]-[bhPhe]-[Lys(PEG40KB)]-R—C—NH2 [Compound 295]” belongs 1780 nM.

Staying with this assay, now noted: Table 2D (Illustrative Monomer Hepcidin Analogues); ferroportin-GFP HEK293 cells; read-out: IC50: FPN internalisation.
With `CC[C@H](C)C1NC(=O)[C@@H](NC(=O)[C@@H]2CCCN2C(=O)[C@@H](NC(=O)[C@H](Cc2cnc[nH]2)NC(=O)[C@@H](NC(=O)[C@H](CCC(=O)OC)NC(=O)CC(C)C)[C@@H](C)O)C(c2ccccc2)c2ccccc2)SCSC[C@@H](C(N)=O)NC(=O)[C@@H](CCCCN)NC(=O)C2(Cc3ccccc3C2)NC(=O)[C@H](CCCCNC(=O)COCCOCCNC(=O)COCCOCCNC(=O)[C@H](CN)NC(=O)CCCCCCCCCCCCCCCCC(=O)O)NC1=O` (stereo partly drawn) [Compound 506] (Isovaleryl-E(OMe)TH[Dip]P[X9][ξIle]K([AEEA-AEEA-Dap-C18 diacid])[Aic][dK]C-NH2; thioether 6-11), the DC50 worked out at 31.3 nM.
Still for that read-out and setting: the figure for `CCC(=O)CC[C@H](NC(=O)CC(C)C)C(=O)N[C@H](C(=O)N[C@@H](Cc1cnc[nH]1)C(=O)N[C@H](C(=O)N1CCC[C@H]1C(=O)N[C@H]1CSSC[C@@H](C(N)=O)CC(=O)[C@@H](CCCCN)NC(=O)[C@H](CCC(C)C)NC(=O)[C@H](CCCCNC(=O)COCCOCCNC(=O)COCCOCCNC(=O)[C@H](CN)NC(=O)CCCCCCCCCCCCCCCCC(=O)O)NC(=O)[C@H]([C@@H](C)CC)NC1=O)C(c1ccccc1)c1ccccc1)[C@@H](C)O` [Compound 509] (Isovaleryl-[X10]TH[Dip]PCIK([AEEA-AEEA-Dap-C18 diacid])[hLeu]; linker 6-C via X11) is 20.6 nM; for `COC(=O)CC[C@H](NC(=O)CC(C)C)C(=O)N[C@H](C(=O)N[C@@H](Cc1cnc[nH]1)C(=O)N[C@H](C(=O)N1CCC[C@H]1C1CSSC[C@@H](C(N)=O)NC(=O)[C@@H](CCCCN)NC(=O)C[C@H](Cc2ccccc2)NC(=O)[C@H](CCCCNC(=O)COCCOCCNC(=O)COCCOCCNC(=O)[C@H](CN)NC(=O)CCCCCCCCCCCCCCCCC(=O)O)NC(=O)C2(CCCCC2)NC1=O)C(c1ccccc1)c1ccccc1)[C@@H](C)O` (stereo partly drawn) [Compound 512] it is 37.4 nM.
With `CC[C@H](C)[C@@H]1NC(=O)[C@@H](NC(=O)[C@@H]2CCCN2C(=O)[C@@H](NC(=O)[C@H](Cc2ccncc2)NC(=O)[C@@H](NC(=O)[C@H](CCC(=O)OC)NC(=O)CC(C)C)[C@@H](C)O)C(c2ccccc2)c2ccccc2)CSSC[C@@H](C(N)=O)NC(=O)[C@@H](CCCCN)NC(=O)C[C@H](Cc2ccccc2)NC(=O)[C@H](CCCCNC(=O)COCCOCCNC(=O)COCCOCCNC(=O)[C@H](CN)NC(=O)CCCCCCCCCCCCCCCCC(=O)O)NC1=O` [Compound 499], the DC50 came to 14.3 nM.

Usually EC50 stands for the concentration that produces a half-maximal response.

Values taken from patent publication US20230295259A1 (Protagonist Therapeutics, Inc., priority 2020, published 2023).
